Data published in paper PMC8772772, “Enantioselective Synthesis and Pharmacological Evaluation of Aza-CGP37157–Lipoic Acid Hybrids for the Treatment of Alzheimer’s Disease” (Antioxidants, 2022).
“And” between values parts separate entries of the source, which are not always exact repeats. Equal entries are not always repeated.

Columns and labels:
[1] = DPPH reduction assay, antioxidant capacity; conditions: DPPH 100 µM, 30 min, mean ± SEM; for DPPH Scavenging at 100 µM, %: compound 100 µM; for DPPH Scavenging at 1mM, %: compound 1 mM
Description: Antioxidant capacity was evaluated by using described procedure slightly modified. Compounds (0.1 and 1 mM, final concentration) were diluted in assay media (EtOH/H2O, 70:30) and mixed with 100 μL of DPPH (SigmaAldrich, D9132, Madrid, Spain) solution (100 μM final concentration) in a clear 96-multiwell plate. Final solution was kept in dark for 30 min, and absorbance of DPPH was measured in a SpectroStar Nano plate-reader (BMG Labtech, Ortenberg, Germany) in duplicate at […]. All experiments included a blank (assay media), control (DPPH 100 μM) and a positive control (ascorbic acid, 100 μM). Data were evaluated as % absorbance (Abs) reduction of control after subtracting blank absorbance. % DPPH reduction = [100 − ((Abssample − Absblank) × 100]/Abscontrol
Initially, we evaluated the free-radical-scavenging capacity of derivatives 7a–d in the DPPH assay, based on the capacity of the tested derivatives to react with the 2,2-diphenyl-1-picrylhydracil radical to generate a non-radical derivate. Hybrid derivatives 7a–d were evaluated at two different concentrations (0.1 and 1 mM), considering the activities of previously reported racemic derivatives. […] Ascorbic acid was used as a positive control, and CGP37157, rac-3a and (rac,R)-3b were included as references. […] Those results are similar to those obtained for racemic mixtures 3a and 3b and a mixture of (S,R)-7b and (R,R)-7d obtained from rac-3 and R-lipoic acid.

[2] = test system: BV2 microglial cells; test: Nitrite production reduction in LPS-stimulated BV2 microglial cells (Griess); type: cell-based, mouse; conditions: BV2 + LPS, 0.3–30 µM
Description: BV2 microglial cells were seeded at 2 × 10^4 cells/well and treated with compounds at increasing concentrations during 24 h in complete culture media. Then, treatments were removed, and BV2 cells were co-incubated with compounds and LPS (100 ng/mL) (O127:B8, SigmaAldrich, L3129) for additional 18 h in culture media supplemented with 1% FBS. Each plate included non-treated cells as basal nitrite production. Thereafter, nitrite production was determined by using the modified Griess assay. In brief, samples (150 μL) were mixed with DAPSONE (75 μL) (SigmaAldrich, A74807) and NEDA (75 μL) (SigmaAldrich, 33461), and the mixture was incubated at room temperature for 5 min. Light absorption was measured at 550 nm in a microplate reader (SPECTROstar nano, BMG Labtech). Basal nitrite production was referred to as 100% of nitrite production, and all data were normalized to the basal condition. Concentration needed to reduce nitrite production to 50% was calculated from graphical representation of percentage of nitrite production vs. compound concentration, and data were fitted by non-linear regression and interpolated to 50%.
Chronic neuroinflammation is considered a key pathological event in the early stages of AD development. Among immune cells present at CNS, microglia is related to host defense and tissue repair. Nonetheless, chronic neuroinflammation induced by an adverse environment of protein aggregates and exacerbated OS induces a neurotoxic activity of microglia that, finally, leads to neuronal death. […] To this end, we selected the BV2 microglial cell model stimulated by lipopolysaccharide (LPS), a TLR4 agonist that activates the pro-inflammatory response. CGP37157, R- and S-LA; analogue compounds rac-3a and (rac,R)-3b; and precursor derivatives 6 were included with comparative and reference purposes. Microglial BV2 cells were treated with increasing concentrations of the corresponding compound (0.3, 3, 10 and 30 µM) for 24 h following a pre-incubation protocol. Thereafter, treatments were exchanged by a combination of the corresponding compound at desired concentration and LPS (100 ng/mL) during 18 h. At the end of this period, nitrite production was evaluated by the Griess method as an indirect measurement of iNOS enzyme expression and BV2 activation.

[3] = test system: SH-SY5Y neuroblastoma cells; test: Neuroprotection against rotenone/oligomycin A oxidative stress in SH-SY5Y cells (MTT); type: cell-based, human; conditions: compound 1 μM 24 h, then compound + R/O (30/10 μM) 24 h; for % Survival: basal = 100, R/O alone 53.4
Description: Human neuroblastoma SH-SY5Y cells were plated in 96-well clear multi-well plates (6 × 10^4 cells/well). The potential neuroprotective activity of compounds against OS was evaluated using the rotenone (30 μM) (SigmaAldrich, R8875) and oligomycin A (10 μM) (SigmaAldrich, 75351) (R/O) toxic mixture. Neuroprotection activity against Tau hyperphosphorylation was evaluated by using the okadaic acid (20 nM) model. Cells were pre-incubated with each compound (1 µM) for 24 h, and then treatments were removed and cells were incubated with compounds (1 µM) in the presence the corresponding toxic for additional 24 h. At the end of the experiments, viability was determined by the MTT method. Data were normalized from cell death induced by the toxic stimuli (considered as 100% cell death). Then, the protection percentages were calculated by subtracting from the death induced by toxic stimuli, the death in the presence of the compound.
The tetrazolium ring of MTT can be cleaved by active dehydrogenases to produce a formazan precipitate. At the end of the experiments, MTT (SigmaAldrich, M2003) stock solution was added to each well to achieve a final concentration of 0.5 mg/mL. Cells were incubated for 2 h. Thereafter, culture media was removed, and DMSO was added to each well to dissolve the formazan precipitate. Finally, absorbance was measured in a microplate reader (SPECTROstar nano, BMG Labtech) at 570 nm. Absorbance obtained in basal conditions was considered as 100% cell viability.
Thus, we selected a pre-incubation protocol to evaluate their potential neuroprotective capacity based on the NRF2-induction activity and direct antioxidant effect. Compound pre-incubation would induce the expression of antioxidant enzymes regulated by the phase II antioxidant response, thus promoting cells’ survival. The co-incubation period would also evaluate their capacity to trap free radicals produced by intoxicated mitochondria. SH-SY5Y neuroblastoma cells were treated with compounds (1 µM) during 24 h, and then cells were co-incubated with the corresponding compound at the same concentration and the R/O combination (30/10 µM) for additional 24 h. Melatonin, a well-known antioxidant natural neurohormone, was included as a positive control (1 µM). Previously reported racemic derivatives (rac-3a and (rac,R)-3b) and their precursors ((±)-6, R-6 and S-6) were included for comparative purposes at the same concentration.

SMILES | DPPH Scavenging at 100 µM, % [1] [%] | DPPH Scavenging at 1mM, % [1] | anti-inflammatory activity (nitrite production) at the evaluated concentrations [2] | % Protection [3] [%] | % Survival [3] [%]
O=C1CN(CCOC(=O)CCCC[C@@H]2CCSS2)[C@@H](c2ccccc2Cl)c2cc(Cl)ccc2N1 [(R,R)-7d, 2-((R)-7-Chloro-5-(2-chlorophenyl)-2-oxo-1,2,3,5-tetrahydro-4H-benzo[e][1,4]diazepin-4-yl)ethyl 5-((R)-1,2-dithiolan-3-yl)pentanoate] | 8.66 ± 3.0 | 23.3 ± 3.5% | no significant activity | 50.7 | 77.6 ± 4.4
O=C1CN(CCOC(=O)CCCC[C@@H]2CCSS2)[C@H](c2ccccc2Cl)c2cc(Cl)ccc2N1 [(R,S)-7c, 2-((S)-7-Chloro-5-(2-chlorophenyl)-2-oxo-1,2,3,5-tetrahydro-4H-benzo[e][1,4]diazepin-4-yl)ethyl 5-((R)-1,2-dithiolan-3-yl)pentanoate] | 13.6 ± 3.8 | 35.9% and 35.9 ± 1.9% | no significant activity | 47.2 | 76.1 ± 2.9
O=C1CN(CCOC(=O)CCCC[C@H]2CCSS2)[C@@H](c2ccccc2Cl)c2cc(Cl)ccc2N1 [(S,R)-7b, 2-((R)-7-Chloro-5-(2-chlorophenyl)-2-oxo-1,2,3,5-tetrahydro-4H-benzo[e][1,4]diazepin-4-yl)ethyl 5-((S)-1,2-dithiolan-3-yl)pentanoate] | 8.46 ± 3.8 | 32.0 ± 1.7% |  | 61.1 | 81.0 ± 4.7
O=C1CN(CCOC(=O)CCCC[C@H]2CCSS2)[C@H](c2ccccc2Cl)c2cc(Cl)ccc2N1 [(S,S)-7a, 2-((S)-7-Chloro-5-(2-chlorophenyl)-2-oxo-1,2,3,5-tetrahydro-4H-benzo[e][1,4]diazepin-4-yl)ethyl 5-((S)-1,2-dithiolan-3-yl)pentanoate] | 10.9 ± 3.5 | 30.3 ± 1.6% | no significant activity | 43.4 | 74.8 ± 3.2
